{
  "source": "paper PMC12073298",
  "about": "“Design, Synthesis, and Biological Evaluation of Naphthoquinone Salts as Anticancer Agents” (Molecules, 2025)",
  "key": {"[1]": {"test_system": "Survivin suppression (indirect)", "set-up": "method as in ref 13 (a number printed in a supplementary file, which may have a reference list of its own: not looked up in the article's list)", "conditions": "cited from earlier work"}, "[2]": {"test_system": "Pyruvate Kinase M2 (PKM2)", "set-up": "method as in ref 7-8 (a number printed in a supplementary file, which may have a reference list of its own: not looked up in the article's list)", "conditions": "cited from earlier work"}, "GLUT1": {"test_system": "GLUT1", "set-up": "method as in ref 5-6 (a number printed in a supplementary file, which may have a reference list of its own: not looked up in the article's list)", "conditions": "cited from earlier work"}, "[3]": {"test_system": "normal endometrial stromal cells (MAD11)", "test": "MTT cell viability assay, MAD11 cells", "assay_type": "cell-based, human", "conditions": "Homo sapiens, MAD11, 48 h, MAD11 non-cancerous cells, n = 3 biological replicates, read-out: Mean IC50 (μM) MAD11 ± SD", "procedure": "(§1) The cytotoxic effects of the synthesized salt compounds were assessed against human endometrial cancer cells (HEC1A) and normal endometrial stromal cells (MAD11) using the MTT cell viability assay. BH10 was used as the reference compound.\n(§2) Reagents and equipment: phosphate-buffered saline (PBS) (Sigma Aldrich, St. Louis, MO, USA), 10× Trypsin-EDTA solution (Sigma Aldrich, 59418C), Dulbecco’s Modified Eagle’s Medium (Sigma Aldrich), foetal bovine serum (FBS), and 100× penicillin-streptomycin solution (Sigma Aldrich P4333). The MTT reagent was prepared by dissolving 5 mg/mL MTT powder in sterile PBS, followed by filtration, whereas the MTT solvent contained 4 mM HCl and 0.1% Nonidet P-40 in isopropanol. Dimethyl sulfoxide (DMSO) was also sourced from Sigma Aldrich. Absorbance measurements were acquired using Kaleido 1.0 software coupled with an EnSight™ HH3400 Multimode Plate Reader (PerkinElmer, Waltham, MA, USA). HEC-1-A endometrial cancer cells were obtained from ATCC, while MAD11 endometrial stromal cells were provided by Dr. Hui Li (University of Virginia). MAD11 cells, derived from non-cancerous donors, were immortalized via human telomerase reverse transcriptase (hTERT).\n(§3) Method: The methods were adapted from Byrne et al. (2014). Cells were cultured in DMEM supplemented with 10% FBS and 1% Pen-Strep solution (100 U/mL penicillin and 0.1 mg/mL streptomycin). Upon reaching ~70% confluence, the cells were washed with sterile PBS and detached using a 1× trypsin-EDTA solution. The cells were then resuspended in culture media, counted, and seeded into sterile 96-well tissue culture plates (2500 cells per well for MAD11; 5000 cells per well for HEC-1-A). The cells were incubated at 37 °C with 5% CO2 for 24 h prior to drug treatment. Drugs were serially diluted in culture medium to final concentrations of 100, 50, 25, 12.5, 6.3, 3.1, 1.6, and 0.8 µM per well and applied in triplicate. For compounds 7a–f and 15, as their IC₅₀ values were below 0.8 µM, an additional set of three biological replicates was conducted using a lower concentration range (500, 250, 125, 63, 31, 16, 8, and 4 nM). To minimize variations due to DMSO (vehicle), both drug dilutions and control wells received the same final concentration of DMSO. After 48 h of incubation at 37 °C with 5% CO2, cell viability was assessed by adding 20 µL/well of MTT reagent for 3 h. Supernatants were aspirated, and formazan crystals were dissolved in MTT solvent before absorbance was measured at 590/620 nm using an EnSight™ HH3400 Multimode Plate Reader. Cell viability was expressed as a percentage of the vehicle (DMSO-treated) control, with results reported as mean ± SEM from three independent experiments. IC50 values were determined using GraphPad Prism 9."}, "[4]": {"test_system": "human endometrial cancer cells (HEC1A)", "test": "MTT cell viability assay, HEC1A cells", "assay_type": "cell-based", "procedure": "as §1, §2, §3"}, "[5]": {"test_system": "human endometrial cancer cells (HEC1A)", "conditions": "hit compound, earlier work; cited from earlier work"}, "Hexokinase II": {"test_system": "Hexokinase II", "set-up": "method as in ref 2-4 (a number printed in a supplementary file, which may have a reference list of its own: not looked up in the article's list)", "conditions": "cited from earlier work"}, "[6]": {"test_system": "Indoleamine 2,3-dioxygenase 1 (IDO1)", "set-up": "method as in ref 9-10 (a number printed in a supplementary file, which may have a reference list of its own: not looked up in the article's list)", "conditions": "cited from earlier work"}, "[7]": {"test_system": "receptor-interacting protein kinase 2 (RIPK2)", "set-up": "method as in ref 11-12 (a number printed in a supplementary file, which may have a reference list of its own: not looked up in the article's list)", "conditions": "cited from earlier work"}, "[8]": {"conditions": "reported target as listed, test system not given, read-out: IC50 (Table S1)"}},
  "data": [
    {"smiles": "COCCn1c2c([n+](Cc3cnccn3)c1C)C(=O)c1ccccc1C2=O", "note": "[YM155]", "values": [
      {"measurement": "Selectivity Notes (Table S1)", "setting": "[1]; Table S1 comparison", "result": 18},
      {"measurement": "IC50", "setting": "[1]; [8]", "result": 0.0137, "unit": "µM"}
    ]},
    {"smiles": "CC(C)=CC[C@@H](O)C1=CC(=O)c2c(O)ccc(O)c2C1=O", "note": "[Shikonin]", "values": [
      {"measurement": "Selectivity Notes (Table S1)", "setting": "[2]; Table S1 comparison", "result": "Low"},
      {"measurement": "IC50", "setting": "[2]; [8]", "result": 19.9, "unit": "µM"}
    ]},
    {"smiles": "O=C(CCc1ccc(O)cc1)c1c(O)cc(O)cc1O", "note": "[Phloretin]", "values": [
      {"measurement": "Selectivity Notes (Table S1)", "setting": "GLUT1; Table S1 comparison", "result": "Limited"},
      {"measurement": "IC50", "setting": "GLUT1; [8]", "result": "~2", "unit": "µM"}
    ]},
    {"smiles": "O=C1C(Cl)=C(NCCN2CCOCC2)C(=O)c2ccccc21", "note": "[BH10, reference compound]", "values": [
      {"measurement": "IC50", "setting": "[3]", "result": "28.2 ± 12.2", "unit": "µM"},
      {"measurement": "IC50", "setting": "[4]; Homo sapiens, HEC-1-A, 48 h, HEC1A cells, MTT, 48 h, n = 3 biological replicates, read-out: Mean IC50 (μM) HEC1A ± SD", "result": "11.8 ± 5.19", "unit": "µM"},
      {"measurement": "Selectivity Ratio", "setting": "[4]; IC50 value from MAD11 cells divided by the IC50 value from HEC1A cells", "result": 2.38},
      {"measurement": "selective toxicity (IC50 value in non-cancerous cells/IC50 value of cancer cells)", "setting": "[5]", "result": 2.38}
    ]},
    {"smiles": "O=C(O)c1nn(Cc2ccc(Cl)cc2Cl)c2ccccc12", "note": "[Lonidamine]", "values": [
      {"measurement": "Selectivity Notes (Table S1)", "setting": "Hexokinase II; Table S1 comparison", "result": "Low"},
      {"measurement": "IC50", "setting": "Hexokinase II; [8]", "result": 170, "unit": "µM"}
    ]},
    {"smiles": "CC(C)=CCC1=C(O)C(=O)c2ccccc2C1=O", "note": "[Lapachol]", "values": [
      {"measurement": "Selectivity Notes (Table S1)", "setting": "[6]; Table S1 comparison", "result": "Limited"},
      {"measurement": "IC50", "setting": "[6]; [8]", "result": 25, "unit": "µM"}
    ]},
    {"smiles": "Cc1n(Cc2ccccc2)c2c([n+]1Cc1ccc(F)cc1)C(=O)c1ccccc1C2=O", "note": "[cRIPGBM]", "values": [
      {"measurement": "Selectivity Notes (Table S1)", "setting": "[7]; Table S1 comparison", "result": "Variable, brain-specific"},
      {"measurement": "IC50", "setting": "[7]; [8]", "result": 0.027, "unit": "µM"}
    ]}
  ]
}
